Assay results: PMC10052035, “Virtual Screening, Structural Analysis, and Formation Thermodynamics of Carbamazepine Cocrystals” (Pharmaceutics, 2023)
Values belong to the compound of their own block, whether it stands above or below them.

What was measured:
[1] = Solubility of cocrystals and their constituents in organic solvents (shake-flask, HPLC); conditions: for solubility at 48 h: organic solvent or mixture, thermodynamic from solid
Description: For the [CBZ + 3AcAmBA] (1:1) cocrystal, methanol was used. For [CBZ + 4AcAmBA] (1:1), all the experiments were performed in acetonitrile. An excess of the solid was placed in an Eppendorf tube, and 2 mL of solvent was added. The resulting suspension was shaken in a ThermoMixer C (Eppendorf, Hamburg, Germany) at 800 rpm for 48 h at the specified temperature. Subsequently, the saturated solution was separated using a 0.22 μm PTEF filter, diluted, and analyzed using HPLC. The solid phases after the experiment were collected and characterized by PXRD. Each experiment was repeated three times.
The HPLC was performed on an LC-20 AD Shimadzu Prominence model (Shimadzu, Kyoto, Japan) equipped with a PDA detector and a Luna C-18 column (150 mm × 4.6 mm i.d., 5 μm particle size, and 100 Å pore size). The column temperature was set to 40 °C. To achieve the proper separation of the cocrystal components, different ratios of the mobile phase, consisting of acetonitrile and a 0.1% aqueous solution of trifluoroacetic acid (35:65 v/v), were used. The flow rate was 1.0 mL·min^−1, and the injection volume was 20 μL. The UV detection of carbamazepine, 2-acetamidobenzoic acid, 3-acetamidobenzoic acid, and 4-acetamidobenzoic acid was carried out at the wavelengths of 285 nm, 249 nm, 220 nm, and 266 nm, respectively.

[2] = assay type: physicochemical; conditions: for Scc, solubility of the cocrystal: pH 2; for [CF]eu, eutectic concentration of coformer / [CBZ]eu, eutectic concentration of CBZ / Keu, eutectic constant: pH 2.0, 310.2 K; for [CF]eu, eutectic concentration of coformer: eutectic point; for [CBZ]eu, eutectic concentration of CBZ: eutectic point (drug and cocrystal in equilibrium with solution); for Keu, eutectic constant: Keu = [CF]eu/[CBZ]eu
Description: The saturation shake-flask method was used to measure the aqueous solubility of the CBZ cocrystals in a pH 2.0 buffer solution at the eutectic point, where drug and cocrystal are in equilibrium with the solution. The eutectic point between the cocrystal and the drug was reached by suspending 80 mg of the cocrystal and 30 mg of CBZ in 2 mL of the buffer solution. The obtained suspension was stirred continuously for 72 h at 37.0 ± 0.1 °C. After equilibration, the final pH of the solution was measured. The suspension was diluted with the mobile phase after being filtered through a […] PTEF filter. Concentrations of compounds were analyzed by HPLC. The solid phases after the experiment were characterized by PXRD.
The column temperature was set to 40 °C.

[3] = Preliminary solution stability (congruent/incongruent dissolution) in organic solvents, PXRD of residual phases; assay type: physicochemical
Excerpt: The most convenient way to determine the solubility product of a cocrystal is to ensure that the solution and the cocrystal are at thermodynamic equilibrium, i.e., that the cocrystal is congruently soluble in the chosen solvent. In this work, acetonitrile was primarily utilized as a medium to carry out solubility experiments. […] (1:1) and [CBZ + 3AcAmBA] […] In the case of [CBZ + 3AcAmBA] (1:1), incongruent solubility of the cocrystal was expected given the high solubility ratio of the components in acetonitrile (Table S6). This is likely to result in an asymmetric ternary phase diagram with a narrow stability region for the [CBZ + 3AcAmBA] (1:1) cocrystal. […] It is reasonable to assume that the poor solution stability of the [CBZ + 2AcAmBA] (1:1) cocrystal is not due to the large solubility difference between CBZ and 2AcAmBA but rather because of the low intrinsic thermodynamic stability of the binary solid form caused by the lack of energy gain associated with cocrystal formation, which leads to a higher solubility in all solvents considered. […] (1:1) cocrystal compared to the parent pure components (~40 °C, Figure S2), implicitly corroborate this supposition. Since no suitable solvent for solubility studies of [CBZ + 2AcAmBA] (1:1) could be found, this system was not further explored. The [CBZ + 3AcAmBA]

[4] = Cocrystal formation thermodynamics from solubility data (Kf, ΔformG, ΔformH, ΔformS); assay type: physicochemical; conditions: for ΔformH: van't Hoff, 293.15-313.15 K
Excerpt: It is known that the relative stability of a cocrystal with respect to a physical mixture of the parent constituents at a given temperature can be quantitatively expressed in terms of the free-energy change, ΔformG, of the cocrystallization reaction. Analyzing the temperature dependence of the Gibbs formation energy can provide further information on the enthalpy and entropy contributions to the driving force of the process as well as help to estimate the thermodynamic transition temperature, which determines the stability domains of a cocrystal and its individual constituents. The experimental assessment of ΔformG is based on solubility data for the starting molecules and the corresponding cocrystal in the same solvent at a predetermined temperature using the equation below:(3) ΔformG=−RTlnap,Ax×ap,By/acc,Ax×acc,By=−RTlnap,Ax×ap,By/Ksp=−RTlnKf, where ap,A and ap,B represent the activities of pure A and B compounds in a saturated solution; acc,A and acc,B are the activities of the cocrystal components in a solution, in equilibrium with pure cocrystal; Ksp is the solubility product of a cocrystal; T is the temperature; x and y are the stoichiometric coefficients; and Kf is an equilibrium constant at the experimental temperature.
Using the van’t Hoff expression, the enthalpy of the cocrystallization process, ΔformH, may be estimated by evaluating the Kf values at various temperatures (assuming that ΔformH is a constant within the selected temperature range):(4) dlnKf/d(1/T)=−ΔformH/R
The entropy of cocrystal formation, ΔformS, can be estimated from (5) ΔformS=ΔformH−ΔformG/T
Even though the activities in Equation (3) are usually approximated by the corresponding molar concentration while neglecting the activity coefficients, a more valid approximation implies that the activity coefficients for the two solute species are constant along the cocrystal solubility line and equal to the activity coefficients of the pure components in the saturated solutions in the same solvent and temperature. […] Table S5 contains the solubility values of CBZ, coformers, and the CBZ cocrystals with emodin, paeonol, nicotinamide, and glutaric acid in various organic solvents.

[5] = design: method as in doi:10.1016/j.molliq.2021.118320; conditions: pH 2.0, 310.2 K; value belongs to the coformer of the cocrystal named in the row; ref [103]; cited from earlier work
[6] = methanol, 293.15 K, value is C∙10^2
[7] = methanol, 298.15 K, value is C∙10^2
[8] = methanol, 303.15 K, value is C∙10^2
[9] = methanol, 308.15 K, value is C∙10^2
[10] = methanol, 313.15 K, value is C∙10^2
[11] = 298.2K, listed as [CBZ+3AcAmBA] (1:1)

Structure (SMILES): CC(=O)Nc1cccc(C(=O)O)c1.NC(=O)N1c2ccccc2C=Cc2ccccc21 [[CBZ + 3AcAmBA] (1:1)]
Ccc,3AcAmBA∙10^2, coformer concentration in equilibrium with cocrystal [1, 6]: 7.0±0.1 mol/l | Ccc,CBZ∙10^2, CBZ concentration in equilibrium with cocrystal [1, 6]: 7.00±0.06 mol/l | Ccc,3AcAmBA∙10^2, coformer concentration in equilibrium with cocrystal [1, 7]: 8.1±0.1 mol/l | Ccc,CBZ∙10^2, CBZ concentration in equilibrium with cocrystal [1, 7]: 8.20±0.10 mol/l | Ccc,3AcAmBA∙10^2, coformer concentration in equilibrium with cocrystal [1, 8]: 9.5±0.1 mol/l | Ccc,CBZ∙10^2, CBZ concentration in equilibrium with cocrystal [1, 8]: 9.50±0.08 mol/l | Ccc,3AcAmBA∙10^2, coformer concentration in equilibrium with cocrystal [1, 9]: 11.1±0.06 mol/l | Ccc,CBZ∙10^2, CBZ concentration in equilibrium with cocrystal [1, 9]: 11.00±0.08 mol/l | Ccc,3AcAmBA∙10^2, coformer concentration in equilibrium with cocrystal [1, 10]: 12.5±0.07 mol/l | Ccc,CBZ∙10^2, CBZ concentration in equilibrium with cocrystal [1, 10]: 12.10±0.08 mol/l | Scc, solubility of the cocrystal [2]: (1.30 ± 0.03)·10^−3 Mol·L^−1 | [CF]eu, eutectic concentration of coformer [2]: (1.75 ± 0.08)·10^−3 Mol·L^−1 | [CBZ]eu, eutectic concentration of CBZ [2]: (9.8 ± 0.2)·10^−4 Mol·L^−1 | Keu, eutectic constant [2]: 1.8 ± 0.1 | dissolution behaviour / solution stability ([3]; acetonitrile): dissolved incongruently | dissolution behaviour / solution stability ([3]; methanol): dissolve congruently | T·ΔformS ([4]; 298.2K): -0.908 ± 0.12 kcal/mol | lnKf ([4]; 298.2K): 1.17 ± 0.02 | ΔformG ([4]; 298.2K): -0.696 ± 0.012 kcal/mol | T·ΔformS [4, 11]: -0.908 ± 0.12 kcal/mol | ΔformG [4, 11]: -0.696 ± 0.012 kcal/mol | ΔformH ([4]; 298.2K): -1.6 ± 0.12 kcal/mol | ΔformH [4, 11]: -1.6 ± 0.12 kcal/mol | lnKf ([4]; methanol, 293.15 K): 1.20±0.02 | ∆formG ([4]; methanol, 293.15 K): -0.7 ± 0.012 kcal/mol | lnKf ([4]; methanol, 298.15 K): 1.17±0.02 | ∆formG ([4]; methanol, 298.15 K): -0.696 ± 0.012 kcal/mol | lnKf ([4]; methanol, 303.15 K): 1.12±0.02 | ∆formG ([4]; methanol, 303.15 K): -0.676 ± 0.012 kcal/mol | lnKf ([4]; methanol, 308.15 K): 1.06±0.015 | ∆formG ([4]; methanol, 308.15 K): -0.65 ± 0.0096 kcal/mol | lnKf ([4]; methanol, 313.15 K): 1.04±0.02 | ∆formG ([4]; methanol, 313.15 K): -0.643 ± 0.0072 kcal/mol

Structure (SMILES): CC(=O)Nc1ccccc1C(=O)O.NC(=O)N1c2ccccc2C=Cc2ccccc21 [[CBZ + 2AcAmBA] (1:1)]
Scc, solubility of the cocrystal [2]: (2.8 ± 0.1)·10^−3 Mol·L^−1 | [CF]eu, eutectic concentration of coformer [2]: (7.5 ± 0.1)·10^−3 Mol·L^−1 | [CBZ]eu, eutectic concentration of CBZ [2]: (1.10 ± 0.06)·10^−3 Mol·L^−1 | Keu, eutectic constant [2]: 6.8 ± 0.4 | dissolution behaviour / solution stability ([3]; acetonitrile): dissolved incongruently | dissolution behaviour / solution stability ([3]; several other tested solvents, including methanol, ethanol, and acetone): incongruent behavior

solubility at 48 h ([1]; acetonitrile, 20 °C): 4.3 ± 1 mM | solubility at 48 h ([1]; methanol, 20 °C): 75 ± 0.5 mM | solubility at 48 h ([1]; methanol, 25 °C): 87 ± 0.5 mM | solubility at 48 h ([1]; methanol, 30 °C): 97 ± 0.5 mM | solubility at 48 h ([1]; methanol, 35 °C): 109 ± 0.8 mM | solubility at 48 h ([1]; methanol, 40 °C): 119.5 ± 0.6 mM | Cp∙10^2, solubility of pure component [1, 6]: 7.50±0.05 mol/l
Structure (SMILES): CC(=O)Nc1cccc(C(=O)O)c1 [Cocrystal 3AcAmBA, 3-acetamidobenzoic acid]
S0(CF), intrinsic solubility of coformer [5]: 4.1 mM
